The source of these data is ChEMBL document CHEMBL1149275, “Structure-activity relationships of acetylcholinesterase noncovalent inhibitors based on a polyamine backbone. 3. Effect of replacing the inner polymethylene chain with cyclic moieties” (J Med Chem, 2004).

One may read the pKb as −log10 of the Kb, conventionally taken in molar units. A low value points to a large Kb. As a reminder, the IC50 is the concentration needed to halve the response being measured. Lower therefore signals greater potency. What is called Ki is a dissociation constant, usually derived from enzyme kinetics or from competition with a known ligand.

For assay [1], the target named is T1, Muscarinic acetylcholine receptor M2 (Homo sapiens) (UniProt P08172).
T1 sequence (whole entry): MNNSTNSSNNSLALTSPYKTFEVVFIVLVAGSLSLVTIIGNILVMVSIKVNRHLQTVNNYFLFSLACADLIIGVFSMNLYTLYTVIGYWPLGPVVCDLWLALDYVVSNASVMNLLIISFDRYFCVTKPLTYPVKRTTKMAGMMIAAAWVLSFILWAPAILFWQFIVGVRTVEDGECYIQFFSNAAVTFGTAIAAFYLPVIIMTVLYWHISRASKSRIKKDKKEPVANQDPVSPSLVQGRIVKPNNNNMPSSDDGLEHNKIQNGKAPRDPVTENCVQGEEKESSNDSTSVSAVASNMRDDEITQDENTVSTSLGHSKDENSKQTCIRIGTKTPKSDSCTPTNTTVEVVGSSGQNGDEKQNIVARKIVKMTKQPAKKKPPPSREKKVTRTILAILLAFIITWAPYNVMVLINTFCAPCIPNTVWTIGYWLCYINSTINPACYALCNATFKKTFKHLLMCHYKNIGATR
As to conditions: Cavia porcellus; Cardiac atrium.
Description: Antagonist activity at muscarinic M2 receptor assessed as contraction of electrically stimulated guinea pig left atrium at 10 uM

In the next assay the target is Cholinesterase (Homo sapiens, UniProt P06276).
Sequence of Cholinesterase (P06276 whole entry): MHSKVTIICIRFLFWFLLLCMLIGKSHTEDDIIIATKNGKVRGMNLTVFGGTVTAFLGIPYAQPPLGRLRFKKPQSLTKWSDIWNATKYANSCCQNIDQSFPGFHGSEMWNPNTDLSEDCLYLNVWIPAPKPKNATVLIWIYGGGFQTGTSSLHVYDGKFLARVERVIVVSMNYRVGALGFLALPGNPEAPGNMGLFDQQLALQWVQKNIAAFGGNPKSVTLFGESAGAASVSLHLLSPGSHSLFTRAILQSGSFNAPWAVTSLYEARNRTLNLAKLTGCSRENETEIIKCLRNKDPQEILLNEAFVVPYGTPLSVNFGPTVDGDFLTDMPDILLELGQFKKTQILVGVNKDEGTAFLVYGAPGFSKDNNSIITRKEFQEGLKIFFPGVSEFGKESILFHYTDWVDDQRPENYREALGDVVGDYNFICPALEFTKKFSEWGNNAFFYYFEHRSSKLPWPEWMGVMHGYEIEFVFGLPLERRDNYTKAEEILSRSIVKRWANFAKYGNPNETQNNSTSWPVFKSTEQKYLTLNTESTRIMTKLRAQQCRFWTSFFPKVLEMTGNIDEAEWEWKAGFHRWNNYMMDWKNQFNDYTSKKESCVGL
The target of a further assay is Acetylcholinesterase (Homo sapiens, UniProt P22303).
Sequence of Acetylcholinesterase (P22303 whole entry): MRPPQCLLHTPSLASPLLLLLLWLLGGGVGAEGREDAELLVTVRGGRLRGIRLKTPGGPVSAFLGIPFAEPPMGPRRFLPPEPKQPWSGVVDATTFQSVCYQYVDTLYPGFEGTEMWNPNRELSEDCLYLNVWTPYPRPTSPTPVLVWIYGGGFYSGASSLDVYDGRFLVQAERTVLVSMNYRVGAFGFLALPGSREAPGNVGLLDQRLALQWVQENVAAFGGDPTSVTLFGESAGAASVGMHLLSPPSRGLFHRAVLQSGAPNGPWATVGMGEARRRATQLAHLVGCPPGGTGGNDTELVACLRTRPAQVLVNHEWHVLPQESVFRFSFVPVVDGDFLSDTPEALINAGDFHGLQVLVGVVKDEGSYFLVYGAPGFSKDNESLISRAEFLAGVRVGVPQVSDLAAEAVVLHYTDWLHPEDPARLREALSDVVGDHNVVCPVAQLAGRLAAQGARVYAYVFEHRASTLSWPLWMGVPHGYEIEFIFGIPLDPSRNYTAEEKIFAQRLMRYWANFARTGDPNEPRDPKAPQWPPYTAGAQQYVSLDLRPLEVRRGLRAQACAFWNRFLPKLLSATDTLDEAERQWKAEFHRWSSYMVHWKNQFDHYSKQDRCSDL

Description for Acetylcholinesterase: Inhibition of human recombinant AChE

`COc1ccccc1CN(C)CCCCCC(=O)N(C)CCCCCCCCN(C)C(=O)CCCCCN(C)Cc1ccccc1OC` gave a negative-log Kb (pKb) in assay [1] of 6.39.
For `CCN(CCCCCC(=O)N1CCC(CCCC2CCN(C(=O)CCCCCN(CC)Cc3ccccc3OC)CC2)CC1)Cc1ccccc1OC`, the half-inhibitory concentration (IC50) is 3390 nM on Cholinesterase and 6.61 nM on Acetylcholinesterase.
Turning to `CCN(CCCCCCNc1ccc(CCc2ccc(NCCCCCCN(CC)Cc3ccccc3OC)cc2)cc1)Cc1ccccc1OC`, the IC50 is 95500 nM against Cholinesterase and 30900 nM at Acetylcholinesterase.
The like results for `CCN(CCCCCC(=O)N1CCC(CC2CCN(C(=O)CCCCCN(CC)Cc3ccccc3OC)CC2)CC1)Cc1ccccc1OC` were, in that order, 6460 nM and 3.31 nM.
The like results for `CC[N+](C)(CCCCCC(=O)Nc1ccc(CCc2ccc(NC(=O)CCCCC[N+](C)(CC)Cc3ccccc3OC)cc2)cc1)Cc1ccccc1OC` (stereo not given) were, in that order, 1100 nM and 120 nM.
As to `CCN(CCCCCCNc1ccc(Cc2ccc(NCCCCCCN(CC)Cc3ccccc3OC)cc2)cc1)Cc1ccccc1OC`, the figures for the concentration for half-maximal inhibition (IC50) against Cholinesterase and at Acetylcholinesterase were 1620 nM and 1070 nM, respectively.
Turning to `CC[N+](C)(CCCCCC(=O)N1CCC(CCCC2CCN(C(=O)CCCCC[N+](C)(CC)Cc3ccccc3OC)CC2)CC1)Cc1ccccc1OC` (stereo not given), the IC50 against Cholinesterase was 661 nM; at Acetylcholinesterase it was 5.75 nM.
Turning to `CCN(CCCCCC(=O)Nc1ccc(Cc2ccc(NC(=O)CCCCCN(CC)Cc3ccccc3OC)cc2)cc1)Cc1ccccc1OC`, the IC50 against Cholinesterase is 1820 nM; against Acetylcholinesterase, 63.1 nM.
Consider `CCN(CCCCCC(=O)Nc1ccc(-c2ccc(NC(=O)CCCCCN(CC)Cc3ccccc3OC)cc2)cc1)Cc1ccccc1OC`, for which the values for the 50% inhibitory concentration (IC50) against Cholinesterase and at Acetylcholinesterase were 1860 nM and 36.3 nM, respectively.
On Cholinesterase, `CCN(CCCCCC(=O)N1CCC(C2CCN(C(=O)CCCCCN(CC)Cc3ccccc3OC)CC2)CC1)Cc1ccccc1OC` gave an IC50 of 8510 nM. At Acetylcholinesterase, this compound gave an IC50 of 3.31 nM and a Ki of 5.67 nM. Also, in assay [1], the pKb turned out to be 6.18.
On to `CCN(CCCCCC(=O)N(C)CCCCCCCCN(C)C(=O)CCCCCN(CC)Cc1ccccc1OC)Cc1ccccc1OC`, for which the pKb in assay [1] amounted to 5.65.
For `CCN(CCCCCCNc1ccc(-c2ccc(NCCCCCCN(CC)Cc3ccccc3OC)cc2)cc1)Cc1ccccc1OC`, the IC50 against Cholinesterase is 15500 nM; against Acetylcholinesterase it was 2630 nM.
In the case of `CC[N+](C)(CCCCCC(=O)N1CCC(CCC2CCN(C(=O)CCCCC[N+](C)(CC)Cc3ccccc3OC)CC2)CC1)Cc1ccccc1OC` (stereo not given), the IC50 at Cholinesterase is 1860 nM; against Acetylcholinesterase it was 5.75 nM.
For `CCN(CCCCCC(=O)Nc1ccc(CCc2ccc(NC(=O)CCCCCN(CC)Cc3ccccc3OC)cc2)cc1)Cc1ccccc1OC`, in that order: 1700 nM and 170 nM.
As to `CCN(CCCCCC(=O)N1CCC(CCC2CCN(C(=O)CCCCCN(CC)Cc3ccccc3OC)CC2)CC1)Cc1ccccc1OC`, the IC50 was 3630 nM against Cholinesterase and 7.41 nM against Acetylcholinesterase.
